Measured values as given in article PMC3774136 (Bioorganic & medicinal chemistry letters, 2013).
Like-named read-outs stand apart in the source and are kept apart here.

What was measured:
tubulin = conditions: read-out: Tubulin polymerization IC50; as reported in the literature; cited from earlier work
[1] = test system: tubulin (colchicine site); conditions: as reported in the literature, cited from earlier work
[2] = test system: MCF-7 human breast cancer cells; assay: Growth of MCF-7 human breast cancer cells; format: cell-based; conditions: compared with CA-4

SMILES	IC50 (tubulin)	Inhibition of binding of colchicine, % inhibition ([1]; 1 µM inhibitor)	Inhibition of binding of colchicine, % inhibition ([1]; 5 µM inhibitor)	Cytotoxic activity in MCF-7 cells (in words) [2]
COc1ccc(Sc2cc(OC)c(OC)c(OC)c2)cc1 [Compound 1]	1200 ± 100 nM	56 ± 7%	89 ± 1%	–
COc1ccc(Sc2cc(OC)c(OC)c(OC)c2)cc1[N+](=O)[O-] [Compound 2]	–	–	–	inactive
COc1cc(SSc2cc(OC)c(OC)c(OC)c2)cc(OC)c1OC [Compound 8]	–	–	–	inactive
COc1ccc([Se]c2ccc(OC)cc2)cc1 [Compound 12]	–	–	–	inactive
COc1ccc([Se][Se]c2ccc(OC)cc2)cc1 [Compound 13]	–	–	–	inactive
